US9499550B2 (BRISTOL-MYERS SQUIBB COMPANY, priority 2012, dated 2016)
Where two headings read alike, the source gives them in different places.

Legend:
[1] = tested on: HCV genotype 1a (H77 strain) replicon in HUH-7 cells; assay: HCV replicon luciferase reporter assay, genotype 1a; assay type: cell-based; details: Hepatitis C virus, Huh-7, 72 h, HCV genotype 1a replicon luciferase, 3 days incubation
Method in brief: (§1)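 Replicon inhibition for both genotypes was measured as Renilla luciferase signal (EnduRen, 7.5 μM final, 2 h) after 3-day, 37° C exposure of replicon-bearing HUH-7 cells in 4% FCS DMEM, 0.5% DMSO. The 1b construct carries S1179I; the 1a H77 construct carries P1496L and S2204I. Twenty-point, 3-fold dilutions were fitted four-parametrically for EC50, and CC50 was taken from multiplexed Cell Titer-Blue.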

[2] = tested on: HCV genotype 1b (Con1) replicon in HUH-7 cells; assay: HCV replicon luciferase reporter assay, genotype 1b; assay type: cell-based; details: Hepatitis C virus, Huh-7, 72 h, HCV genotype 1b replicon luciferase, 3 days incubation
Method in brief: as §1

Structure (SMILES) | EC50 ([1]; GETYPE1A, read-out: LE_1a (EC50, range)) | EC50 ([2]; GETYPE1B, read-out: LE_1b (EC50, range)) | EC50 ([1]; read-out: LE_1a (EC50, range)) | EC50 ([2]; read-out: LE_1b (EC50, range)) | EC50 ([1]; read-out: LE_1a (EC50)) | EC50 ([2]; read-out: LE_1b (EC50))
COc1cc2ccccc2c(O[C@@H]2C[C@H]3C(=O)N[C@]4(C(=O)NS(=O)(=O)C5(CF)CC5)C[C@H]4/C=C\CC[C@@H](C)C[C@@H](C)[C@H](NC(=O)OC(C)(C)C(F)(F)F)C(=O)N3C2)n1 [Compound 6016] | < 5.46 nM | < 5.46 nM | – | – | – | –
COc1cc2ccccc2c(O[C@@H]2C[C@H]3C(=O)N[C@]4(C(=O)NS(=O)(=O)C5CC5)C[C@H]4/C=C\CC[C@H](C)C[C@@H](C)[C@H](NC(=O)OC(C)(C)C(F)(F)F)C(=O)N3C2)n1 [Compound 6017, 1,1,1-trifluoro-2-methylpropan-2-yl((2R,6S,7R,9S,13aS,14aR,16aS,Z)-14a-((cyclopropylsulfonyl)carbamoyl)-2-((3-methoxyisoquinolin-1-yl)oxy)-7,9-dimethyl-5,16-dioxo-1,2,3,5,6,7,8,9,10,11,13a,14,14a,15,16,16a-hexadecahydrocyclopropa[e]pyrrolo[1,2-a][1,4]diazacyclopentadecin-6-yl)carbamate] | – | – | < 5.46 nM | < 5.46 nM | – | –
COc1cc2ccccc2c(O[C@@H]2C[C@H]3C(=O)N[C@]4(C(=O)NS(=O)(=O)C5CC5)C[C@H]4/C=C\CC[C@@H](C)C[C@@H](C)[C@H](NC(=O)OC(C)(C)C(F)(F)F)C(=O)N3C2)n1 [Compound 6018, 1,1,1-trifluoro-2-methylpropan-2-yl((2R,6S,7R,9R,13aS,14aR,16aS,Z)-14a-((cyclopropylsulfonyl)carbamoyl)-2-((3-methoxyisoquinolin-1-yl)oxy)-7,9-dimethyl-5,16-dioxo-1,2,3,5,6,7,8,9,10,11,13a,14,14a,15,16,16a-hexadecahydrocyclopropa[e]pyrrolo[1,2-a][1,4]diazacyclopentadecin-6-yl)carbamate] | – | – | < 5.46 nM | < 5.46 nM | – | –
C[C@@H]1CC/C=C\[C@@H]2C[C@@]2(C(=O)NS(=O)(=O)C2(C)CC2)NC(=O)[C@@H]2C[C@@H](Oc3nc4c(c5ccccc35)OCCC4)CN2C(=O)[C@@H](NC(=O)OC(C)(C)C)[C@H](C)C1 [Compound 6020, tert-butyl ((2R,6S,7R,9R,13aS,14aR,16aS,Z)-2-((3,4-dihydro-2H-pyrano[3,2-c]isoquinolin-6-yl)oxy)-7,9-dimethyl-14a-(((1-methylcyclopropyl)sulfonyl)carbamoyl)-5,16-dioxo-1,2,3,5,6,7,8,9,10,11,13a,14,14a,15,16,16a-hexadecahydrocyclopropa[e]pyrrolo[1,2-a][1,4]diazacyclopentadecin-6-yl)carbamate] | – | – | < 5.46 nM | < 5.46 nM | – | –
C[C@@H]1CC/C=C\[C@@H]2C[C@@]2(C(=O)NS(=O)(=O)C2(C)CC2)NC(=O)[C@@H]2C[C@@H](Oc3nc4c(c5ccccc35)OCCC4)CN2C(=O)[C@@H](NC(=O)OC(C)(C)C(F)(F)F)[C@H](C)C1 [Compound 6022, 1,1,1-trifluoro-2-methylpropan-2-yl((2R,6S,7R,9R,13aS,14aR,16aS,Z)-2-((3,4-dihydro-2H-pyrano[3,2-c]isoquinolin-6-yl)oxy)-7,9-dimethyl-14a-(((1-methylcyclopropyl)sulfonyl)carbamoyl)-5,16-dioxo-1,2,3,5,6,7,8,9,10,11,13a,14,14a,15,16,16a-hexadecahydrocyclopropa[e]pyrrolo[1,2-a][1,4]diazacyclopentadecin-6-yl)carbamate] | – | – | < 5.46 nM | < 5.46 nM | – | –
CC[C@@H]1C[C@@H](C)CC/C=C\[C@@H]2C[C@@]2(C(=O)NS(=O)(=O)C2(C)CC2)NC(=O)[C@@H]2C[C@@H](Oc3nc4c(c5ccccc35)OCCC4)CN2C(=O)[C@H]1NC(=O)OC(C)(C)C [Compound 6023, tert-butyl ((2R,6S,7R,9S,13aS,14aR,16aS,Z)-2-((3,4-dihydro-2H-pyrano[3,2-c]isoquinolin-6-yl)oxy)-7-ethyl-9-methyl-14a-(((1-methylcyclopropyl)sulfonyl)carbamoyl)-5,16-dioxo-1,2,3,5,6,7,8,9,10,11,13a,14,14a,15,16,16a-hexadecahydrocyclopropa[e]pyrrolo[1,2-a][1,4]diazacyclopentadecin-6-yl)carbamate] | – | – | 4.82 to 103 nM | 4.82 to 103 nM | – | –
CC[C@@H]1C[C@H](C)CC/C=C\[C@@H]2C[C@@]2(C(=O)NS(=O)(=O)C2(C)CC2)NC(=O)[C@@H]2C[C@@H](Oc3nc4c(c5ccccc35)OCCC4)CN2C(=O)[C@H]1NC(=O)OC(C)(C)C [Compound 6024, tert-butyl ((2R,6S,7R,9R,13aS,14aR,16aS,Z)-2-((3,4-dihydro-2H-pyrano[3,2-c]isoquinolin-6-yl)oxy)-7-ethyl-9-methyl-14a-(((1-methylcyclopropyl)sulfonyl)carbamoyl)-5,16-dioxo-1,2,3,5,6,7,8,9,10,11,13a,14,14a,15,16,16a-hexadecahydrocyclopropa[e]pyrrolo[1,2-a][1,4]diazacyclopentadecin-6-yl)carbamate] | – | – | < 5.46 nM | < 5.46 nM | – | –
C[C@@H]1CC/C=C\[C@@H]2C[C@@]2(C(=O)NS(=O)(=O)C2(CF)CC2)NC(=O)[C@@H]2C[C@@H](Oc3nc4c(c5ccccc35)OCCC4)CN2C(=O)[C@@H](NC(=O)OC(C)(C)C)[C@H](C)C1 [Compound 6026, tert-butyl ((2R,6S,7R,9R,13aS,14aR,16aS,Z)-2-((3,4-dihydro-2H-pyrano[3,2-c]isoquinolin-6-yl)oxy)-14a-(((1-(fluoromethyl)cyclopropyl)sulfonyl)carbamoyl)-7,9-dimethyl-5,16-dioxo-1,2,3,5,6,7,8,9,10,11,13a,14,14a,15,16,16a-hexadecahydrocyclopropa[e]pyrrolo[1,2-a][1,4]diazacyclopentadecin-6-yl)carbamate] | – | – | < 5.46 nM | < 5.46 nM | 1.13 nM | 0.7 nM
CC[C@@H]1C[C@H](C)CC/C=C\[C@@H]2C[C@@]2(C(=O)NS(=O)(=O)C2(C)CC2)NC(=O)[C@@H]2C[C@@H](Oc3nc4c(c5ccccc35)OCCC4)CN2C(=O)C1NC(=O)OC(C)(C)C(F)(F)F (stereo partly drawn) [Compound 6028, 1,1,1-trifluoro-2-methylpropan-2-yl((2R,6S,7R,9R,13aS,14aR,16aS,Z)-2-((3,4-dihydro-2H-pyrano[3,2-c]isoquinolin-6-yl)oxy)-7-ethyl-9-methyl-14a-(((1-methylcyclopropyl)sulfonyl)carbamoyl)-5,16-dioxo-1,2,3,5,6,7,8,9,10,11,13a,14,14a,15,16,16a-hexadecahydrocyclopropa[e]pyrrolo[1,2-a][1,4]diazacyclopentadecin-6-yl)carbamate] | – | – | < 5.46 nM | < 5.46 nM | – | –
C[C@H]1CC/C=C\[C@@H]2C[C@@]2(C(=O)NS(=O)(=O)C2(CF)CC2)NC(=O)[C@@H]2C[C@@H](Oc3nc4c(c5ccccc35)OCCC4)CN2C(=O)[C@@H](NC(=O)OC(C)(C)C(F)(F)F)[C@H](C)C1 [Compound 6029, 1,1,1-trifluoro-2-methylpropan-2-yl((2R,6S,7R,9S,13aS,14aR,16aS,Z)-2-((3,4-dihydro-2H-pyrano[3,2-c]isoquinolin-6-yl)oxy)-14a-(((1-(fluoromethyl)cyclopropyl)sulfonyl)carbamoyl)-7,9-dimethyl-5,16-dioxo-1,2,3,5,6,7,8,9,10,11,13a,14,14a,15,16,16a-hexadecahydrocyclopropa[e]pyrrolo[1,2-a][1,4]diazacyclopentadecin-6-yl)carbamate] | – | – | 4.82 to 103 nM | 4.82 to 103 nM | – | –
C[C@@H]1CC/C=C\[C@@H]2C[C@@]2(C(=O)NS(=O)(=O)C2(CF)CC2)NC(=O)[C@@H]2C[C@@H](Oc3nc4c(c5ccccc35)OCCC4)CN2C(=O)[C@@H](NC(=O)OC(C)(C)C(F)(F)F)[C@H](C)C1 [Compound 6030, 1,1,1-trifluoro-2-methylpropan-2-yl((2R,6S,7R,9R,13aS,14aR,16aS,Z)-2-((3,4-dihydro-2H-pyrano[3,2-c]isoquinolin-6-yl)oxy)-14a-(((1-(fluoromethyl)cyclopropyl)sulfonyl)carbamoyl)-7,9-dimethyl-5,16-dioxo-1,2,3,5,6,7,8,9,10,11,13a,14,14a,15,16,16a-hexadecahydrocyclopropa[e]pyrrolo[1,2-a][1,4]diazacyclopentadecin-6-yl)carbamate] | – | – | < 5.46 nM | < 5.46 nM | 1.43 nM | 0.81 nM
C[C@H]1CC/C=C\[C@@H]2C[C@@]2(C(=O)NS(=O)(=O)C2(CF)CC2)NC(=O)[C@@H]2C[C@@H](Oc3nc4c(c5ccccc35)OCCC4)CN2C(=O)[C@@H](NC(=O)OC(C)(C)C(C)(F)F)[C@H](C)C1 [Compound 6031, 3,3-difluoro-2-methylbutan-2-yl((2R,6S,7R,9S,13aS,14aR,16aS,Z)-2-((3,4-dihydro-2H-pyrano[3,2-c]isoquinolin-6-yl)oxy)-14a-(((1-(fluoromethyl)cyclopropyl)sulfonyl)carbamoyl)-7,9-dimethyl-5,16-dioxo-1,2,3,5,6,7,8,9,10,11,13a,14,14a,15,16,16a-hexadecahydrocyclopropa[e]pyrrolo[1,2-a][1,4]diazacyclopentadecin-6-yl)carbamate] | – | – | 4.82 to 103 nM | 4.82 to 103 nM | – | –
